This is an account of results in patent US9540391B2, “Isomannide derivatives as inhibitors of soluble epoxide hydrolase” (SANOFI, priority 2013, dated 2017).

The structures appear in SMILES notation. Where a name gives a salt, the structure may show the parent alone.

The experiment has as its target T1, recombinant sEH (Homo sapiens, UniProt P34913).
T1 construct: made in house; host or cells: Sf9 insect cells
T1 sequence (P34913 1-555): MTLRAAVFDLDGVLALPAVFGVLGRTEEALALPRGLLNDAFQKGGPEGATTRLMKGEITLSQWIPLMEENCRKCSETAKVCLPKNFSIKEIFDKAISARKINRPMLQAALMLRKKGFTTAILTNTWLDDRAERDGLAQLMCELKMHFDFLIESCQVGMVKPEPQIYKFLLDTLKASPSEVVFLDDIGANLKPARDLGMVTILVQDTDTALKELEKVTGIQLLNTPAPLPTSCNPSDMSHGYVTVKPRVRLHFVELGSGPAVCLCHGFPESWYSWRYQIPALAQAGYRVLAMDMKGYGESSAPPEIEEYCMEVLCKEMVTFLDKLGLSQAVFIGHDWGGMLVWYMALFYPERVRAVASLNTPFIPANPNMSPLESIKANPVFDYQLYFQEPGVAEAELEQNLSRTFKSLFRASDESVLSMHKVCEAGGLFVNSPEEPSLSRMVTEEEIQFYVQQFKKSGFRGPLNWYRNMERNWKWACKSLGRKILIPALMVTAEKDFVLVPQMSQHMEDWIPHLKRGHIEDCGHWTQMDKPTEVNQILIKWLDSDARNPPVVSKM
In words: biochemical screening assay for inhibition of soluble epoxide hydrolase (fluorometric, Phome substrate). In short, it runs like this:
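Human sEH from Sf9 cells (2 nM final) was pre-incubated 15 min at 30 °C with compound (0.0001–10 μM), then reacted 60 min at 30 °C with 5 μM Phome in 25 mM Hepes/0.01% albumin. Fluorescence of released 6-methoxy-2-naphthaldehyde was read before substrate and at end; IC50 from % inhibition.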
For `O=C(NC1CCCCC1)N[C@H]1CO[C@H]2[C@@H]1OC[C@@H]2Sc1ccncn1` [Example 49, 1-Cyclohexyl-3-[(3S,3aR,6S,6aS)-6-(pyrimidin-4-ylsulfanyl)-hexahydro-furo[3,2-b]furan-3-yl]-urea; hydrochloride], the IC50 stood at 0.003 µM. Next, `Cc1ncccc1O[C@H]1CO[C@H]2[C@@H]1OC[C@@H]2NC(=O)NC(C)(C)CN1CCOCC1` [Example 197, 1-(1,1-Dimethyl-2-morpholin-4-yl-ethyl)-3-[(3S,3aR,6S,6aS)-6-(2-methyl-pyridin-3-yloxy)-hexahydro-furo[3,2-b]furan-3-yl]-urea]: 1.14 µM; `O=C(Nc1ccc(OCc2ccccc2)cc1)NC1COC2C(CCc3ccccc3)COC12` [Example 355, 1-(4-Benzyloxy-phenyl)-3-[(3S,3aR,6R)-6-((S)-phenethyl)-hexahydro-furo[3,2-b]furan-3-yl]-urea]: 0.08 µM. Then `O=C(NC1CCCCC1)N[C@H]1CO[C@H]2[C@@H]1OC[C@@H]2Oc1ccc(F)cc1` [Example 24, 1-Cyclohexyl-3-[(3S,3aR,6S,6aS)-6-(4-fluoro-phenoxy)-hexahydro-furo[3,2-b]furan-3-yl]-urea], with 0.004 µM. Next, `O=C(Nc1ccc(Cl)c(Cl)c1)NC1COC2C(C=Cc3ccccc3)COC12` [Example 326, 1-(3,4-Dichloro-phenyl)-3-[(3S,3aR,6R)-6-((S)-(Z)-styryl)-hexa-hydro-furo[3,2-b]furan-3-yl]-urea]: 0.027 µM; `O=C(NCCc1ccccc1)N[C@H]1CO[C@H]2[C@@H]1OC[C@@H]2C#Cc1ccccc1` [Example 297, 1-Phenethyl-3-((3S,3aR,6S,6aR)-6-phenylethynyl-hexahydro-furo[3,2-b]furan-3-yl)-urea]: 0.067 µM; `C[C@H](NC(=O)N[C@H]1CO[C@H]2[C@@H]1OC[C@@H]2Oc1ccc(F)cc1)C1CCCCC1` [Example 156, 1-((S)-1-Cyclohexyl-ethyl)-3-[(3S,3aR,6S,6aS)-6-(4-fluoro-phenoxy)-hexahydro-furo[3,2-b]furan-3-yl]-urea]: 0.024 µM. As to `Cc1ncccc1O[C@H]1CO[C@H]2[C@@H]1OC[C@@H]2NC(=O)NC1CC(C)CC(C)(C)C1` (stereo partly drawn) [Example 256, 1-[(3S,3aR,6S,6aS)-6-(2-Methyl-pyridin-3-yloxy)-hexahydro-furo[3,2-b]furan-3-yl]-3-(3,3,5-trimethyl-cyclohexyl)-urea], the half-inhibitory concentration (IC50) was determined as 0.003 µM. Next, `Cc1ncccc1OC1COC2C(NC(=O)NCCc3ccccc3OC(F)(F)F)COC12` [Example 206, 1-[(3S,3aR,6S,6aS)-6-(2-Methyl-pyridin-3-yloxy)-hexahydro-furo[3,2-b]furan-3-yl]-3-[2-(2-trifluoro-methoxy-phenyl)-ethyl]-urea]: 0.002 µM; `Cc1ccc(S[C@H]2CO[C@H]3[C@@H]2OC[C@@H]3NC(=O)NC2CCCCC2)nn1` [Example 57, 1-Cyclohexyl-3-[(3S,3aR,6S,6aS)-6-(6-methyl-pyridazin-3-ylsulfanyl)-hexahydro-furo[3,2-b]furan-3-yl]-urea]: 0.003 µM; `C[C@@H](NC(=O)N[C@H]1CO[C@H]2[C@@H]1OC[C@@H]2Oc1ccc(F)cc1)c1ccccc1` [Example 162, 1-[(3S,3aR,6S,6aS)-6-(4-Fluoro-phenoxy)-hexahydro-furo[3,2-b]furan-3-yl]-3-((R)-1-phenyl-ethyl)-urea]: 0.039 µM. Next, `COc1cc(NC(=O)N[C@H]2CO[C@@H]3[C@@H]2OC[C@H]3C#Cc2ccccc2)cc(OC)c1` [Example 284, 1-(3,5-Dimethoxy-phenyl)-3-[(3S,3aR,6R)-6-((S)-phenylethynyl)-hexahydro-furo[3,2-b]furan-3-yl]-urea]: 0.071 µM.

`CCOC(=O)c1cccc(O[C@H]2CO[C@H]3[C@@H]2OC[C@@H]3NC(=O)NC2CCCCC2)c1` [Example 141, 3-[(3S,3aS,6S,6aR)-6-(3-Cyclohexyl-ureido)-hexahydro-furo[3,2-b]furan-3-yloxy]-benzoic acid ethyl ester]: the half-maximal inhibitory concentration (IC50) worked out at 0.002 µM. On to `Cc1ncccc1O[C@H]1CO[C@H]2[C@@H]1OC[C@@H]2NC(=O)NC1CCCOC1` (stereo partly drawn) [Example 221, 1-[(3S,3aR,6S,6aS)-6-(2-Methyl-pyridin-3-yloxy)-hexahydro-furo[3,2-b]furan-3-yl]-3-(tetrahydro-pyran-3-yl)-urea], for which the half-maximal inhibitory concentration (IC50) was found to be 0.096 µM. Then `COc1cc(CNC(=O)N[C@H]2CO[C@H]3[C@@H]2OC[C@@H]3Oc2cccnc2C)ccn1` [Example 203, 1-(2-Methoxy-pyridin-4-ylmethyl)-3-[(3S,3aR,6S,6aS)-6-(2-methyl-pyridin-3-yloxy)-hexahydro-furo[3,2-b]furan-3-yl]-urea], with 0.028 µM; and `COC(=O)c1ccc2cc(O[C@H]3CO[C@H]4[C@@H]3OC[C@@H]4NC(=O)NC3CCCCC3)ccc2c1` [Example 148, 6-[(3S,3aS,6S,6aR)-6-(3-Cyclohexyl-ureido)-hexahydro-furo[3,2-b]furan-3-yloxy]-naphthalene-2-carboxylic acid methyl ester], with 0.003 µM; and `O=C(Nc1ccc2c(c1)CCC2)N[C@H]1CO[C@H]2[C@@H]1OC[C@@H]2/C=C\c1ccsc1` [Example 341, 1-Indan-5-yl-3-[(3S,3aR,6S,6aR)-6-((Z)-2-thiophen-3-yl-vinyl)-hexa-hydro-furo[3,2-b]furan-3-yl]-urea], with 0.09 µM.

Consider `COC(=O)c1cccc(NC(=O)N[C@H]2CO[C@H]3[C@@H]2OC[C@@H]3/C=C\c2ccsc2)c1` [Example 343, 3-{3-[(3S,3aR,6S,6aR)-6-((Z)-2-Thiophen-3-yl-vinyl)-hexahydro-furo[3,2-b]furan-3-yl]-ureido}-benzoic acid methyl ester], for which the concentration for half-maximal inhibition (IC50) amounted to 0.102 µM.

`Cc1nc(S[C@H]2CO[C@H]3[C@@H]2OC[C@@H]3NC(=O)NC2CCCCC2)sc1C` [Example 62, 1-Cyclohexyl-3-[(3S,3aR,6S,6aS)-6-(4,5-dimethyl-thiazol-2-ylsulfanyl)-hexahydro-furo[3,2-b]furan-3-yl]-urea]: the 50% inhibitory concentration (IC50) amounted to 0.001 µM. Next, `COc1cc(NC(=O)N[C@H]2CO[C@H]3[C@@H]2OC[C@@H]3C#Cc2ccsc2)cc(OC)c1` [Example 301, 1-(3,5-Dimethoxy-phenyl)-3-((3S,3aR,6S,6aR)-6-thiophen-3-ylethynyl-hexahydro-furo[3,2-b]furan-3-yl)-urea]: 0.104 µM.

Regarding `Cc1cnc(CNC(=O)N[C@H]2CO[C@H]3[C@@H]2OC[C@@H]3Oc2cccnc2C)cn1` [Example 190, 1-(5-Methyl-pyrazin-2-ylmethyl)-3-[(3S,3aR,6S,6aS)-6-(2-methyl-pyridin-3-yloxy)-hexahydro-furo[3,2-b]furan-3-yl]-urea], the IC50 came to 0.475 µM. Next, `O=C(Nc1cccc(C(F)(F)F)c1)N[C@H]1CO[C@H]2[C@@H]1OC[C@@H]2C#Cc1ccccc1` [Example 299, 1-((3S,3aR,6S,6aR)-6-Phenylethynyl-hexahydro-furo[3,2-b]furan-3-yl)-3-(3-trifluoromethyl-phenyl)-urea]: 1.25 µM. Then `O=C(NC1CCCCC1)N[C@H]1CO[C@H]2[C@@H]1OC[C@@H]2Oc1cccnc1` [Example 96, 1-Cyclohexyl-3-[(3S,3aR,6S,6aS)-6-(pyridin-3-yloxy)-hexahydro-furo[3,2-b]furan-3-yl]-urea; trifluoroacetate], with 0.004 µM; and `O=C(NC1CCCCC1)N[C@H]1CO[C@H]2[C@@H]1OC[C@@H]2/C=C\c1ccccc1` [Example 319, 1-Cyclohexyl-3-[(3S,3aR,6S,6aR)-6-((Z)-styryl)-hexahydro-furo[3,2-b]furan-3-yl]-urea], with 0.017 µM; and `Cc1ncccc1O[C@H]1CO[C@H]2[C@@H]1OC[C@@H]2NC(=O)NC1CCC(C(C)(C)O)CC1` (stereo partly drawn) [Example 280, 1-[4-(1-Hydroxy-1-methyl-ethyl)-cyclohexyl]-3-[(3S,3aR,6S,6aS)-6-(2-methyl-pyridin-3-yloxy)-hexa-hydro-furo[3,2-b]furan-3-yl]-urea], with 0.012 µM. For `Cc1ncccc1O[C@H]1CO[C@H]2[C@@H]1OC[C@@H]2NC(=O)NC1CCC(c2ccccc2)CC1` (stereo partly drawn) [Example 264, 1-[(3S,3aR,6S,6aS)-6-(2-Methyl-pyridin-3-yloxy)-hexahydro-furo[3,2-b]furan-3-yl]-3-(4-phenyl-cyclohexyl)-urea], the half-inhibitory concentration (IC50) was determined as 0.006 µM. For `Cc1ncccc1O[C@H]1CO[C@H]2[C@@H]1OC[C@@H]2NC(=O)NC1CCOC(C)C1` (stereo partly drawn) [Example 91, 1-[(3S,3aR,6S,6aS)-6-(2-methyl-pyridin-3-yloxy)-hexahydro-furo[3,2-b]furan-3-yl]-3-(2-methyl-tetrahydro-pyran-4-yl)-urea], the half-inhibitory concentration (IC50) came out at 0.022 µM. With `O=C(Nc1ccc(F)cc1)N[C@H]1CO[C@H]2[C@@H]1OC[C@@H]2C#Cc1ccsc1` [Example 306, 1-(4-Fluoro-phenyl)-3-((3S,3aR,6S,6aR)-6-thiophen-3-ylethynyl-hexahydro-furo[3,2-b]furan-3-yl)-urea], the IC50 is 0.192 µM.

Consider `COc1ccc(O[C@H]2CO[C@H]3[C@@H]2OC[C@@H]3NC(=O)NC2CCCCC2)cc1` [Example 18, 1-Cyclohexyl-3-[(3S,3aR,6S,6aS)-6-(4-methoxy-phenoxy)-hexahydro-furo[3,2-b]furan-3-yl]-urea], for which the half-maximal inhibitory concentration (IC50) amounted to 0.001 µM.

Broadly, the IC50 is the midpoint of a concentration-inhibition curve.
